Starred links: 1 amine or outer side, 2 acyl side, 3 side chain; linkers in the order of their positions; H or OH if unused. Positions of bridges follow the written chain, without caps; N, C: chain ends. Non-standard residues stand in square brackets, D forms with d. Residues, ends and D or L forms follow the SMILES beside them. X28 = O=C([C@H](CCNC[C@H](O)[C@@H](O)[C@H](O[C@@H]1O[C@H](CO)[C@H](O)[C@H](O)[C@H]1O)[C@H](O)CO)N[*:1])[*:2]; X27 = O=C([C@H](CNC[C@H](O)[C@@H](O)[C@H](O[C@@H]1O[C@H](CO)[C@H](O)[C@H](O)[C@H]1O)[C@H](O)CO)N[*:1])[*:2]; X62 = O=C([C@H](CCNC[C@H](O)[C@H](O)[C@@H](O)[C@@H](O)CO)N[*:1])[*:2]; X63 = O=C([C@H](CCNC[C@H](O)[C@@H](O)[C@@H](O)[C@H](O)CO)N[*:1])[*:2]; X11 = O=C([C@H](CNC[C@H](O)[C@@H](O)[C@@H](O)[C@H](O)CO)N[*:1])[*:2]; X35 = O=C([C@H](CNC[C@H](O)[C@H](O)[C@@H](O)[C@@H](O)CO)N[*:1])[*:2]; X8 = O=C([C@H](CNC[C@@H](O)[C@@H](O)[C@@H](O)[C@H](O)CO)N[*:1])[*:2]; X3 = O=C([C@H](CNC[C@@H](O)[C@@H](O)[C@H](O)[C@H](O)CO)N[*:1])[*:2]; Trp(1-CH2COOH) = N[C@@H](Cc1cn(CC(=O)O)c2ccccc12)C(=O)O; Hyp = O=C(O)[C@@H]1C[C@@H](O)CN1; NMeNle = CCCC[C@H](NC)C(=O)O; NMeA = CN[C@@H](C)C(=O)O; Dab = NCC[C@H](N)C(=O)O
Target: T1, PD-1/PD-L1 (Homo sapiens, UniProt Q9NZQ7)
T1 construct: TVMV protease site (linker) (C); made in house; host or cells: HEK293T cells
T1 sequence (Q9NZQ7 18-239): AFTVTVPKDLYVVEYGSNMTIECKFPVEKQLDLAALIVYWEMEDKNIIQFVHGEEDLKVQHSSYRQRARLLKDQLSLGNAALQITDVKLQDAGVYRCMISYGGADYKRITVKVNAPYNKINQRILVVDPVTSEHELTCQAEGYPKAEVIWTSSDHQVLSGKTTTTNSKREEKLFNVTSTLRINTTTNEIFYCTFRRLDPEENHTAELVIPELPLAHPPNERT
Experiment: PD-1/PD-L1 Homogenous Time-Resolved Fluorescence (HTRF) binding assay
Conditions: PD-L1-His 10 nM, PD-1-Ig 20 nM
In short: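 Compounds preincubated 15 min with PD-L1-His (residues 18-239, 10 nM) in dPBS with 0.1% BSA, 0.05% Tween-20, then PD-1-Ig (residues 25-167, 20 nM) for 15 min. Eu-cryptate anti-Ig (1 nM) and APC anti-His (20 nM) equilibrated 30 min; 665/620 nm ratio read, IC50 derived.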

SMILES	IC50
CCCC[C@H]1C(=O)N(C)[C@@H](CCCC)C(=O)N[C@@H](CC(C)C)C(=O)N[C@H](C(=O)NCC(N)=O)CSCC(=O)N[C@@H](Cc2ccc(O)cc2)C(=O)N(C)[C@@H](C)C(=O)N[C@@H](CC(N)=O)C(=O)N2CCC[C@H]2C(=O)N[C@@H](CNC[C@@H](O)[C@@H](O)[C@@H](O)[C@H](O)CO)C(=O)N[C@@H](CC(C)C)C(=O)N2C[C@H](O)C[C@H]2C(=O)N[C@@H](Cc2c[nH]c3ccccc23)C(=O)N[C@@H](CCN)C(=O)N[C@@H](Cc2cn(CC(=O)O)c3ccccc23)C(=O)N1C [Example 2022] ({CH2CO}-Y[NMeA]NP[X8]L[Hyp]W[Dab][Trp(1-CH2COOH)][NMeNle][NMeNle]LCG-NH2; thioether N-14)	8.6 nM
CCCC[C@H]1C(=O)N(C)[C@@H](CCCC)C(=O)N[C@@H](CC(C)C)C(=O)N[C@H](C(=O)NCC(N)=O)CSCC(=O)N[C@@H](Cc2ccc(O)cc2)C(=O)N(C)[C@@H](C)C(=O)N[C@@H](CC(N)=O)C(=O)N2CCC[C@H]2C(=O)N[C@@H](CNC[C@H](O)[C@H](O)[C@@H](O)[C@@H](O)CO)C(=O)N[C@@H](CC(C)C)C(=O)N2C[C@H](O)C[C@H]2C(=O)N[C@@H](Cc2c[nH]c3ccccc23)C(=O)N[C@@H](CCNC[C@H](O)[C@H](O)[C@@H](O)[C@@H](O)CO)C(=O)N[C@@H](Cc2cn(CC(=O)O)c3ccccc23)C(=O)N1C [Example 2023] ({CH2CO}-Y[NMeA]NP[X35]L[Hyp]W[X62][Trp(1-CH2COOH)][NMeNle][NMeNle]LCG-NH2; thioether N-14)	6.1 nM
CCCC[C@H]1C(=O)N(C)[C@@H](CCCC)C(=O)N[C@@H](CC(C)C)C(=O)N[C@H](C(=O)NCC(N)=O)CSCC(=O)N[C@@H](Cc2ccc(O)cc2)C(=O)N(C)[C@@H](C)C(=O)N[C@@H](CC(N)=O)C(=O)N2CCC[C@H]2C(=O)N[C@@H](CNC[C@@H](O)[C@@H](O)[C@H](O)[C@H](O)CO)C(=O)N[C@@H](CC(C)C)C(=O)N2C[C@H](O)C[C@H]2C(=O)N[C@@H](Cc2c[nH]c3ccccc23)C(=O)N[C@@H](CCN)C(=O)N[C@@H](Cc2cn(CC(=O)O)c3ccccc23)C(=O)N1C [Example 2024] ({CH2CO}-Y[NMeA]NP[X3]L[Hyp]W[Dab][Trp(1-CH2COOH)][NMeNle][NMeNle]LCG-NH2; thioether N-14)	1.6 nM
CCCC[C@H]1C(=O)N(C)[C@@H](CCCC)C(=O)N[C@@H](CC(C)C)C(=O)N[C@H](C(=O)NCC(N)=O)CSCC(=O)N[C@@H](Cc2ccc(O)cc2)C(=O)N(C)[C@@H](C)C(=O)N[C@@H](CC(N)=O)C(=O)N2CCC[C@H]2C(=O)N[C@@H](CNC[C@H](O)[C@@H](O)[C@@H](O)[C@H](O)CO)C(=O)N[C@@H](CC(C)C)C(=O)N2C[C@H](O)C[C@H]2C(=O)N[C@@H](Cc2c[nH]c3ccccc23)C(=O)N[C@@H](CCNC[C@H](O)[C@@H](O)[C@@H](O)[C@H](O)CO)C(=O)N[C@@H](Cc2cn(CC(=O)O)c3ccccc23)C(=O)N1C [Example 2026] ({CH2CO}-Y[NMeA]NP[X11]L[Hyp]W[X63][Trp(1-CH2COOH)][NMeNle][NMeNle]LCG-NH2; thioether N-14)	1.8 nM
CCCC[C@H]1C(=O)N(C)[C@@H](CCCC)C(=O)N[C@@H](CC(C)C)C(=O)N[C@H](C(=O)NCC(N)=O)CSCC(=O)N[C@@H](Cc2ccc(O)cc2)C(=O)N(C)[C@@H](C)C(=O)N[C@@H](CC(N)=O)C(=O)N2CCC[C@H]2C(=O)N[C@@H](CNC[C@H](O)[C@H](O)[C@@H](O)[C@@H](O)CO)C(=O)N[C@@H](CC(C)C)C(=O)N2C[C@H](O)C[C@H]2C(=O)N[C@@H](Cc2c[nH]c3ccccc23)C(=O)N[C@@H](CCN)C(=O)N[C@@H](Cc2cn(CC(=O)O)c3ccccc23)C(=O)N1C [Example 2027] ({CH2CO}-Y[NMeA]NP[X35]L[Hyp]W[Dab][Trp(1-CH2COOH)][NMeNle][NMeNle]LCG-NH2; thioether N-14)	1 nM
CCCC[C@H]1C(=O)N(C)[C@@H](CCCC)C(=O)N[C@@H](CC(C)C)C(=O)N[C@H](C(=O)NCC(N)=O)CSCC(=O)N[C@@H](Cc2ccc(O)cc2)C(=O)N(C)[C@@H](C)C(=O)N[C@@H](CC(N)=O)C(=O)N2CCC[C@H]2C(=O)N[C@@H](CNC[C@H](O)[C@@H](O)[C@H](O[C@@H]2O[C@H](CO)[C@H](O)[C@H](O)[C@H]2O)[C@H](O)CO)C(=O)N[C@@H](CC(C)C)C(=O)N2C[C@H](O)C[C@H]2C(=O)N[C@@H](Cc2c[nH]c3ccccc23)C(=O)N[C@@H](CCNC[C@H](O)[C@@H](O)[C@H](O[C@@H]2O[C@H](CO)[C@H](O)[C@H](O)[C@H]2O)[C@H](O)CO)C(=O)N[C@@H](Cc2cn(CC(=O)O)c3ccccc23)C(=O)N1C [Example 2028] ({CH2CO}-Y[NMeA]NP[X27]L[Hyp]W[X28][Trp(1-CH2COOH)][NMeNle][NMeNle]LCG-NH2; thioether N-14)	4.6 nM

From patent US20230242585A1, “IMMUNOMODULATORS” (Bristol-Myers Squibb Company, priority 2020, published 2023)
